Assay results taken from patent publication US12049450B2, “Pyridyloxy-carboxylate derivative and preparation method therefor, herbicidal composition, and use” (Qingdao Kingagroot Chemical Compound Co., Ltd., priority 2018, dated 2024).

How the values were obtained:
Assay in all cases: Post-emergence test experiment (greenhouse pot, spray at 2-3 leaf stage)
Assay type in all cases: in vivo
Conditions in all cases: 1000 g/ha; post-emergence spray at 2-3 leaf stage; assessed after 3 weeks; fresh weight inhibition rate
Abutilon theophrasti = test system: Abutilon theophrasti
Source text: (§1) The activity level standard of harmful plants destruction (i. e. growth inhibition rate) is as follows: • Level 5: the growth inhibition rate is greater than 85%; • Level 4: the growth inhibition rate is equal to or greater than 60% and less than 85%; • Level 3: the growth inhibition rate is equal to or greater than 40% and less than 60%; • Level 2: the growth inhibition rate is equal to or greater than 20% and less than 40%; • Level 1: the growth inhibition rate is equal to or greater than 5% and less than 20%; • Level 0: the growth inhibition rate is less than 5%;
(§2) The above described growth inhibition rate is fresh weight inhibition rate.
(§3) Post-emergence test experiment: Monocotyledonous and dicotyledonous weed seeds and main crop seeds (i. e. wheat, corn, rice, soybean, cotton, oilseed, millet and sorghum.) were put into a plastic pot loaded with soil. Then covered with 0.5-2 cm soil, the seeds were allowed to grow in good greenhouse environment. The test plants were treated at 2-3 leaf stage 2 weeks after sowing. The test compounds of the invention were dissolved with acetone respectively, then added with tween-80, and using 1.5 liters per hectare of an emulsible concentrate of methyl oleate as a synergist, and diluted by certain amount of water to certain concentration. The solution was sprayed to the plants with a sprayer. Then the plants were cultured for 3 weeks in the greenhouse, and the experiment result of weed controlling effect after 3 weeks was listed in tables 3-4.

Digitaria sanguinalis = test system: Digitaria sanguinalis
Source text: as §1, §2, §3

Echinochloa crusgalli = test system: Echinochloa crusgalli
Source text: as §1, §2, §3

Galium spurium = test system: Galium spurium
Source text: as §1, §2, §3

Monochoria vaginalis = test system: Monochoria vaginalis
Source text: as §1, §2, §3

Compound	Activity level (growth inhibition rate) Abutilon theophrasti (Abutilon theophrasti)	Activity level (growth inhibition rate) Digitaria sanguinalis (Digitaria sanguinalis)	Activity level (growth inhibition rate) Echinochloa crusgalli (Echinochloa crusgalli)	Activity level (growth inhibition rate) Galium spurium (Galium spurium)	Activity level (growth inhibition rate) Monochoria Vaginalis (Monochoria vaginalis)
CC(Oc1nc(F)c(Cl)c(N)c1Cl)C(=O)OCc1ccncc1 (racemic) [Compound 117]	5 (Level 5: the growth inhibition rate is greater than 85%)	5 (Level 5: the growth inhibition rate is greater than 85%)	5 (Level 5: the growth inhibition rate is greater than 85%)	5 (Level 5: the growth inhibition rate is greater than 85%)	5 (Level 5: the growth inhibition rate is greater than 85%)
Cc1cc(CSC(=O)C(C)Oc2nc(F)c(Cl)c(N)c2Cl)ccn1 (racemic) [Compound 118]	5 (Level 5: the growth inhibition rate is greater than 85%)	5 (Level 5: the growth inhibition rate is greater than 85%)	5 (Level 5: the growth inhibition rate is greater than 85%)	5 (Level 5: the growth inhibition rate is greater than 85%)	5 (Level 5: the growth inhibition rate is greater than 85%)
CC(Oc1nc(F)c(Cl)c(N)c1Cl)C(=O)SCCc1cnccc1Cl (racemic) [Compound 119]	5 (Level 5: the growth inhibition rate is greater than 85%)	5 (Level 5: the growth inhibition rate is greater than 85%)	5 (Level 5: the growth inhibition rate is greater than 85%)	5 (Level 5: the growth inhibition rate is greater than 85%)	5 (Level 5: the growth inhibition rate is greater than 85%)
Cc1nc(OC(C)C(=O)OCc2ccccc2)c(Cl)c(N)c1Cl (centres unmarked) [Compound 5]	5 (Level 5: the growth inhibition rate is greater than 85%)	5 (Level 5: the growth inhibition rate is greater than 85%)	5 (Level 5: the growth inhibition rate is greater than 85%)	5 (Level 5: the growth inhibition rate is greater than 85%)	5 (Level 5: the growth inhibition rate is greater than 85%)
CC(Oc1nc(C(F)(F)F)c(Cl)c(N)c1Cl)C(=O)SCc1ccccc1 (centres unmarked) [Compound 6]	5 (Level 5: the growth inhibition rate is greater than 85%)	5 (Level 5: the growth inhibition rate is greater than 85%)	5 (Level 5: the growth inhibition rate is greater than 85%)	5 (Level 5: the growth inhibition rate is greater than 85%)	5 (Level 5: the growth inhibition rate is greater than 85%)
CCc1c(OC(C)C(=O)SCc2ccccc2)nc(C(F)(F)F)c(CC)c1N (centres unmarked) [Compound 8]	5 (Level 5: the growth inhibition rate is greater than 85%)	5 (Level 5: the growth inhibition rate is greater than 85%)	5 (Level 5: the growth inhibition rate is greater than 85%)	5 (Level 5: the growth inhibition rate is greater than 85%)	5 (Level 5: the growth inhibition rate is greater than 85%)
CC(Oc1ncc(C(C)C)c(N)c1Cl)C(=O)OCc1ccccc1 (centres unmarked) [Compound 9]	5 (Level 5: the growth inhibition rate is greater than 85%)	5 (Level 5: the growth inhibition rate is greater than 85%)	5 (Level 5: the growth inhibition rate is greater than 85%)	5 (Level 5: the growth inhibition rate is greater than 85%)	5 (Level 5: the growth inhibition rate is greater than 85%)
CC(Oc1nc(Cl)c(C2CC2)c(N)c1Cl)C(=O)OCc1ccccc1 (centres unmarked) [Compound 10]	5 (Level 5: the growth inhibition rate is greater than 85%)	5 (Level 5: the growth inhibition rate is greater than 85%)	5 (Level 5: the growth inhibition rate is greater than 85%)	5 (Level 5: the growth inhibition rate is greater than 85%)	5 (Level 5: the growth inhibition rate is greater than 85%)
CC(Oc1nc(C(F)(F)F)c(F)c(N)c1C(C)C)C(=O)OCc1ccccc1 (centres unmarked) [Compound 11]	5 (Level 5: the growth inhibition rate is greater than 85%)	5 (Level 5: the growth inhibition rate is greater than 85%)	5 (Level 5: the growth inhibition rate is greater than 85%)	5 (Level 5: the growth inhibition rate is greater than 85%)	5 (Level 5: the growth inhibition rate is greater than 85%)
CC(Oc1ncc(I)c(N)c1I)C(=O)OCc1ccccc1 (centres unmarked) [Compound 13]	5 (Level 5: the growth inhibition rate is greater than 85%)	5 (Level 5: the growth inhibition rate is greater than 85%)	5 (Level 5: the growth inhibition rate is greater than 85%)	5 (Level 5: the growth inhibition rate is greater than 85%)	5 (Level 5: the growth inhibition rate is greater than 85%)
CCCc1c(F)nc(OC(C)C(=O)SCc2ccccc2)c(C2CC2)c1N (centres unmarked) [Compound 14]	5 (Level 5: the growth inhibition rate is greater than 85%)	5 (Level 5: the growth inhibition rate is greater than 85%)	5 (Level 5: the growth inhibition rate is greater than 85%)	5 (Level 5: the growth inhibition rate is greater than 85%)	5 (Level 5: the growth inhibition rate is greater than 85%)
CC(Oc1nc(F)c(C(F)(F)F)c(N)c1Cl)C(=O)OCc1ccccc1 (centres unmarked) [Compound 15]	5 (Level 5: the growth inhibition rate is greater than 85%)	5 (Level 5: the growth inhibition rate is greater than 85%)	5 (Level 5: the growth inhibition rate is greater than 85%)	5 (Level 5: the growth inhibition rate is greater than 85%)	5 (Level 5: the growth inhibition rate is greater than 85%)
CC(Oc1ncc(Cl)c(N)c1C(F)(F)F)C(=O)OCc1ccccc1 (centres unmarked) [Compound 16]	5 (Level 5: the growth inhibition rate is greater than 85%)	5 (Level 5: the growth inhibition rate is greater than 85%)	5 (Level 5: the growth inhibition rate is greater than 85%)	5 (Level 5: the growth inhibition rate is greater than 85%)	5 (Level 5: the growth inhibition rate is greater than 85%)
CC(Oc1nc(I)c(Cl)c(N)c1Cl)C(=O)SCc1ccccc1 (centres unmarked) [Compound 17]	5 (Level 5: the growth inhibition rate is greater than 85%)	5 (Level 5: the growth inhibition rate is greater than 85%)	5 (Level 5: the growth inhibition rate is greater than 85%)	5 (Level 5: the growth inhibition rate is greater than 85%)	5 (Level 5: the growth inhibition rate is greater than 85%)
CCCc1c(OC(C)C(=O)OCc2ccccc2)nc(Br)c(Cl)c1N (centres unmarked) [Compound 18]	5 (Level 5: the growth inhibition rate is greater than 85%)	5 (Level 5: the growth inhibition rate is greater than 85%)	5 (Level 5: the growth inhibition rate is greater than 85%)	5 (Level 5: the growth inhibition rate is greater than 85%)	5 (Level 5: the growth inhibition rate is greater than 85%)
Cc1nc(OC(C)C(=O)OCc2ccccc2)c(C)c(N)c1C (centres unmarked) [Compound 19]	5 (Level 5: the growth inhibition rate is greater than 85%)	5 (Level 5: the growth inhibition rate is greater than 85%)	5 (Level 5: the growth inhibition rate is greater than 85%)	5 (Level 5: the growth inhibition rate is greater than 85%)	5 (Level 5: the growth inhibition rate is greater than 85%)
